Our source for the inhibition values is US20050009840A1 (SUGEN, INC., priority 2003, published 2005).

T1 sequence (P08581 974-1390 limits assumed): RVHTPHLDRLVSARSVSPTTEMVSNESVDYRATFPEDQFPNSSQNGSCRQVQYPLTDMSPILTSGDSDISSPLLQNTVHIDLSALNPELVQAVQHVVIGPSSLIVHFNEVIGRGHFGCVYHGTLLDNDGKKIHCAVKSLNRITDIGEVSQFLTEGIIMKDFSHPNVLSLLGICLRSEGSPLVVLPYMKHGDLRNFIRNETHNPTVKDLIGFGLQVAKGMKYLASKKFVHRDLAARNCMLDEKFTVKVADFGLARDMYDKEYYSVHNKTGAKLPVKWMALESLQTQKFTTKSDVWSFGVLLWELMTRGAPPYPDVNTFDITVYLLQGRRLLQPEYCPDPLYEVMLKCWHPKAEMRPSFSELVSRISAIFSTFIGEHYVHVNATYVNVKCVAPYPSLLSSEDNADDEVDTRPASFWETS

This assay has as its target T1, HGFR (Homo sapiens, UniProt P08581).
T1 construct: purchased Upstate 14-526
Put plainly: HGFR continuous-coupled spectrophotometric assay. To be noted: at 1 pM; Table 7, library procedure 42; read-out: % Inhibition (percent c-MET inhibition). The format is biochemical.
Broadly, the inhibition is the percentage by which the read-out fell short of the control. Turning to `Nc1ncc(-c2ccc(C(=O)N3CCC(N4CCCC4)CC3)cc2)cc1OCc1ccc(F)c(F)c1`, the inhibition at 1 pM is 19%.
On to `CC(C)c1ccc(COc2cc(-c3ccc(C(=O)N4CCC(N5CCCC5)CC4)cc3)cnc2N)cc1`, for which the inhibition at 1 pM was 32%.
For `Nc1ncc(-c2ccc(C(=O)N3CCC(N4CCCC4)CC3)cc2)cc1OCc1ccccc1-c1ccccc1` the value was 22%; for `Nc1ncc(-c2ccc(C(=O)N3CCC(N4CCCC4)CC3)cc2)cc1OCc1ccc(OC(F)(F)F)cc1`, 20%.
The result for `Nc1ncc(-c2ccc(C(=O)N3CCC(N4CCCC4)CC3)cc2)cc1OCc1cc(F)cc(F)c1` reads 14%.
The result for `COc1cc(COc2cc(-c3ccc(C(=O)N4CCC(N5CCCC5)CC4)cc3)cnc2N)cc(OC)c1OC` reads 10%; that for `Nc1ncc(-c2ccc(C(=O)N3CCC(N4CCCC4)CC3)cc2)cc1OCc1cc(Cl)cc(Cl)c1`, 19%; that for `Nc1ncc(-c2ccc(C(=O)N3CCC(N4CCCC4)CC3)cc2)cc1OCc1cccc(Oc2ccccc2)c1`, 34%.
In the case of `Nc1ncc(-c2ccc(C(=O)N3CCC(N4CCCC4)CC3)cc2)cc1OCc1cccc(Cl)c1Cl`, the inhibition at 1 pM is 40%.
Regarding `Cc1ccc(COc2cc(-c3ccc(C(=O)N4CCC(N5CCCC5)CC4)cc3)cnc2N)cc1Cl`, the inhibition at 1 pM was 26%.
For the compound `Nc1ncc(-c2ccc(C(=O)N3CCC(N4CCCC4)CC3)cc2)cc1OCc1cc(Cl)ccc1Cl`, the inhibition at 1 pM came to 26%.
Regarding `Nc1ncc(-c2ccc(C(=O)N3CCC(N4CCCC4)CC3)cc2)cc1OCc1nc(CS(=O)(=O)c2ccccn2)no1`, the inhibition at 1 pM was found to be 9%.
In the case of `Nc1ncc(-c2ccc(C(=O)N3CCC(N4CCCC4)CC3)cc2)cc1OCc1cc(-c2c(Cl)cccc2Cl)no1`, the inhibition at 1 pM was 14%.
The result for `CC(=O)N(c1ccc(C)cc1)c1nc(COc2cc(-c3ccc(C(=O)N4CCC(N5CCCC5)CC4)cc3)cnc2N)cs1` reads 9%.
With `CC(Oc1cc(-c2ccc(C(=O)N3CCC(N4CCCC4)CC3)cc2)cnc1N)c1ccccc1` (stereo not shown), the inhibition at 1 pM amounted to 10%.
For `Nc1ncc(-c2ccc(C(=O)N3CCC(N4CCCC4)CC3)cc2)cc1OCc1cccc(OC(F)(F)F)c1` the value was 13%; for `Cc1cc(COc2cc(-c3ccc(C(=O)N4CCC(N5CCCC5)CC4)cc3)cnc2N)nc(-c2ccc(C(F)(F)F)cn2)n1`, 8%.
`Nc1ncc(-c2ccc(C(=O)N3CCC(N4CCCC4)CC3)cc2)cc1OCc1cc(F)ccc1Br`: the inhibition at 1 pM turned out to be 24%.
The result for `Cc1cc(C)cc(COc2cc(-c3ccc(C(=O)N4CCC(N5CCCC5)CC4)cc3)cnc2N)c1` reads 14%; that for `COc1cccc(COc2cc(-c3ccc(C(=O)N4CCC(N5CCCC5)CC4)cc3)cnc2N)c1`, 15%.
The result for `Nc1ncc(-c2ccc(C(=O)N3CCC(N4CCCC4)CC3)cc2)cc1OCc1ccc(Cl)cc1` reads 15%; that for `Nc1ncc(-c2ccc(C(=O)N3CCC(N4CCCC4)CC3)cc2)cc1OCc1cccc(Cl)c1F`, 28%.
For `Nc1ncc(-c2ccc(C(=O)N3CCC(N4CCCC4)CC3)cc2)cc1OCc1ccc(Cl)c(Cl)c1` the value was 26%; for `Nc1ncc(-c2ccc(C(=O)N3CCC(N4CCCC4)CC3)cc2)cc1OCc1cc(F)c(F)cc1F`, 12%.
Take `Nc1ncc(-c2ccc(C(=O)N3CCC(N4CCCC4)CC3)cc2)cc1OCc1ccc(F)c(F)c1F`: the inhibition at 1 pM was 15%.
With `Nc1ncc(-c2ccc(C(=O)N3CCC(N4CCCC4)CC3)cc2)cc1OCc1ccc(C(F)(F)F)cc1C(F)(F)F`, the inhibition at 1 pM turned out to be 12%.
For the compound `Nc1ncc(-c2ccc(C(=O)N3CCC(N4CCCC4)CC3)cc2)cc1OCc1c(F)ccc(F)c1F`, the inhibition at 1 pM was determined as 30%.
As for `Nc1ncc(-c2ccc(C(=O)N3CCC(N4CCCC4)CC3)cc2)cc1OCc1ccc(C(F)(F)F)cc1`, the inhibition at 1 pM worked out at 10%.
For `Cc1cccc(COc2cc(-c3ccc(C(=O)N4CCC(N5CCCC5)CC4)cc3)cnc2N)c1F` the value was 28%.
Regarding `CC(Oc1cc(-c2ccc(C(=O)N3CCC(N4CCCC4)CC3)cc2)cnc1N)c1ccccc1C(F)(F)F` (stereo not shown), the inhibition at 1 pM is 21%.
For `CC(=O)Nc1nc(COc2cc(-c3ccc(C(=O)N4CCC(N5CCCC5)CC4)cc3)cnc2N)cs1` the value was 9%; for `Nc1ncc(-c2ccc(C(=O)N3CCC(N4CCCC4)CC3)cc2)cc1OCc1ccccc1CS(=O)(=O)c1ccccc1`, 11%; for `Nc1ncc(-c2ccc(C(=O)N3CCC(N4CCCC4)CC3)cc2)cc1OC1OC(=O)c2ccccc21` (stereo not shown), 4%.
Take `Nc1ncc(-c2ccc(C(=O)N3CCC(N4CCCC4)CC3)cn2)cc1OCc1ccc(-c2csnn2)cc1`: the inhibition at 1 pM is 41%.
The result for `Nc1ncc(-c2ccc(C(=O)N3CCN(C4CCCC4)CC3)cc2)cc1OCc1cc(F)cc2c1OCOC2` reads 21%; that for `Nc1ncc(-c2ccc(C(=O)N3CCC(N4CCCC4)CC3)cc2)cc1OCc1cc(C(F)(F)F)cc(C(F)(F)F)c1`, 14%.
In the case of `Nc1ncc(-c2ccc(C(=O)N3CCC(N4CCCC4)CC3)cc2)cc1OCc1ccc(F)c(C(F)(F)F)c1`, the inhibition at 1 pM worked out at 13%.
For `Nc1ncc(-c2ccc(C(=O)N3CCC(N4CCCC4)CC3)cc2)cc1OCc1cc(F)cc(C(F)(F)F)c1` the value was 12%.
For `Nc1ncc(-c2ccc(C(=O)N3CCC(N4CCCC4)CC3)cc2)cc1OCc1c(F)cccc1C(F)(F)F` the value was 31%.
For the compound `Nc1ncc(-c2ccc(C(=O)N3CCC(N4CCCC4)CC3)cc2)cc1OCc1cc(F)c(F)c(F)c1`, the inhibition at 1 pM is 19%.
Regarding `Nc1ncc(-c2ccc(C(=O)N3CCC(N4CCCC4)CC3)cc2)cc1OCc1ccccc1OC(F)F`, the inhibition at 1 pM stood at 27%.
For `Nc1ncc(-c2ccc(C(=O)N3CCC(N4CCCC4)CC3)cc2)cc1OCc1ccc(C(F)(F)F)c(F)c1` the value was 25%.
For `Nc1ncc(-c2ccc(C(=O)N3CCC(N4CCCC4)CC3)cc2)cc1OCc1ccc(Br)cc1F`, the inhibition at 1 pM was 31%.
For `Nc1ncc(-c2ccc(C(=O)N3CCC(N4CCCC4)CC3)cc2)cc1OCc1cc(Br)cc(Br)c1` the value was 45%; for `CS(=O)(=O)c1ccc(COc2cc(-c3ccc(C(=O)N4CCC(N5CCCC5)CC4)cc3)cnc2N)cc1`, 11%; for `N#Cc1ccccc1-c1ccc(COc2cc(-c3ccc(C(=O)N4CCC(N5CCCC5)CC4)cc3)cnc2N)cc1`, 77%.
As for `Nc1ncc(-c2ccc(C(=O)N3CCC(N4CCCC4)CC3)cc2)cc1OCc1ccc(C(=O)NCCN2CCOCC2)cc1`, the inhibition at 1 pM was found to be 11%.
The result for `CN(C)CCNC(=O)c1ccc(COc2cc(-c3ccc(C(=O)N4CCC(N5CCCC5)CC4)cc3)cnc2N)cc1` reads 9%; that for `Nc1ncc(-c2ccc(C(=O)N3CCC(N4CCCC4)CC3)cc2)cc1OCc1ccc(C(=O)N2CCNC(c3ccccc3)C2)cc1` (stereo not shown), 12%; that for `Nc1ncc(-c2ccc(C(=O)N3CCC(N4CCCC4)CC3)cc2)cc1OCc1ccc(C(=O)NCc2ccccn2)cc1`, 7%.
The result for `Nc1ncc(-c2ccc(C(=O)N3CCC(N4CCCC4)CC3)cc2)cc1OCc1cccc(C(=O)Nc2cccnc2)c1` reads 10%; that for `Nc1ncc(-c2ccc(C(=O)N3CCC(N4CCCC4)CC3)cc2)cc1OCc1cccc(C(=O)NCc2cccnc2)c1`, 14%.
